Tests used:
Gadd45b [1] = assay: Gene expression, skeletal muscle tissue; format: in vivo, mice; conditions: vs Se-deficient, minus = down
Excerpt: (§1) Animal Care. Male C57BL/6J mice were housed singly and started on the experimental diets described below immediately after weaning (21 days of age). The mice were maintained in the Shared Aging Rodent Facility at the William S. Middleton Memorial Veterans Administration Medical Center (Madison, Wis.). Temperature and humidity were maintained at constant levels. Room light was controlled to provide 12-hr cycles of light and dark.
(§2) Experimental diets were created by Harlan Teklad (Madison, Wis.). Selenium content of the diets was determined by Covance Inc. (Madison, Wis.). Five (5) animals were included in each of the following treatment groups: a diet deficient in selenium (SD); a diet supplemented with selenomethionine (SM, obtained from Sigma, St. Louis, Mo.) such that the final selenium content of the diet was one (1) part per million; a diet supplemented with sodium selenite (SS, Sigma) such that the final concentration of selenium in this diet was one (1) part per million; or a diet supplemented with the yeast selenium SEL-PLEX (SP, Alltech, Lexington, Ky.), such that the final concentration of selenium in this diet was one (1) part per million. SEL-PLEX. Mice were provided with water and their respective diet ad libitum for 100 days. […]
(§3) • 1. […] Additionally, a “signal intensity score” was calculated for each probe set as the sum of the signal intensities for all chips (N=20). • 2. […]

Thioredoxin Reductase 1 = assay: Microarray gene expression, mouse intestine; format: in vivo, mice; conditions: 1 ppm Se diet 100 days vs Se-deficient diet, all p <0.01
Excerpt: as §1
(§4) Experimental diets were created by Harlan Teklad (Madison, Wis.). Selenium content of the diets was determined by Covance Inc. (Madison, Wis.). Five (5) animals were included in each of the following treatment groups: a diet deficient in selenium (SD); a diet supplemented with selenomethionine (SM, obtained from Sigma, St. Louis, Mo.) such that the final selenium content of the diet was one (1) part per million; a diet supplemented with sodium selenite (SS, Sigma) such that the final concentration of selenium in this diet was one (1) part per million; or a diet supplemented with the yeast selenium SEL-PLEX (SP, Alltech, Lexington, Ky.), such that the final concentration of selenium in this diet was one (1) part per million. SEL-PLEX. Mice were provided with water and their respective diet ad libitum for 100 days. Diets were stored at the dark at 4° C. and fresh diet was added to feeder twice weekly.
(§5) Tissue sample preparation and microarray analysis. Mice were killed at 100 days of age by cervical dislocation. For intestinal expression studies, the intestine was flushed twice with saline solution and small intestine was measured and divided in three equal segments. A 3-cm region of the middle segment of the small intestine corresponding to the jejunum (˜300 mg of tissue) was cut and rinsed again with physiological saline to completely remove contents, flash frozen in liquid nitrogen and stored at −80° C. For brain (e.g., cerebral cortex) studies, the cerebral cortex was separated from the surrounding brain tissue and was flash frozen in liquid nitrogen and stored at −80° C.
(§6) Total RNA was isolated from using the guanidinium isothiocyanate method of TRIZOL (Life Technologies, Grand Island, N.Y.) and individual samples were used for gene expression profiles. Total RNA was cleaned up by RNeasy Mini kit (Qiagen, Valencia, Calif.). Target RNA was prepared by converting […] total RNA into double-strand cDNA using GeneChip Expression 3′-Amplification Reagents One-Cycle cDNA Synthesis Kit (Affymetrix, Santa Clara, Calif.) with a T7-(dT)24 primer incorporating a T7 RNA polymerase promoter. After cleaning up double-strand cDNA using Genechip Sample Cleanup Module (Affymetrix, Santa Clara, Calif.), biotin-labeled cRNA was synthesized from double-strand cDNA using GeneChip Expression 3′-Amplification Reagents for IVT Labeling (Affymetrix, Santa Clara, Calif.). The biotin-labeled cRNA was cleaned up using Genechip Sample Cleanup Module and was fragmented by heating (35 min at 94° C.).
(§7) Fifteen (15) μg of cRNA fragments were hybridized (16 h at 45° C.) to Mouse Genome 430 2.0 Array (Affymetrix, Santa Clara, Calif.) using GeneChip Hybridization Oven 640. After hybridization, the gene chips were automatically washed and stained with streptavidin-phycoerythrin biotinylated anti-streptavidin using Affymetrix GeneChip Fluidics Station 450. The DNA chips were scanned with Affymetrix GeneChip Scanner 3000 (Affymetrix, Santa Clara, Calif.) to detect the cell signal intensities by laser. All calculations were performed with Affymetrix GeneChip Operating Software (GCOS) version 1.3 after scanning
(§8) • 1. The spreadsheet containing probe set identifiers and signal intensity values was opened in Microsoft Excel (version 11.1.1 for the Macintosh OS-X operating system) and summary statistics were generated (mean signal intensity for each treatment group, standard error of the mean). Two-tailed t-tests (equal variance) were performed for the following treatment groups: SM vs. SD, SS vs. SD, and SP vs. SD. […]

[2] = test system: Growth arrest and DNA-damage-inducible 45 gamma (Gadd45g); assay: Microarray gene expression, mouse intestine; format: in vivo, mice; conditions: vs Se-deficient diet, minus = down
Excerpt: as §1, §4, §5, §6, §7, §8

SOD1 = assay: Microarray gene expression, mouse intestine; format: in vivo, mice; conditions: 1 ppm Se diet 100 days vs Se-deficient diet
Excerpt: as §1, §4, §5, §6, §7, §8

Selenoprotein W (SelW) = assay: Microarray gene expression, mouse intestine; format: in vivo, mice; conditions: 1 ppm Se diet 100 days vs Se-deficient diet
Excerpt: as §1, §4, §5, §6, §7, §8

[3] = test system: Type 1 iodothyronine deiodinase; assay: Microarray gene expression, mouse intestine; format: in vivo, mice; conditions: 1 ppm Se diet 100 days vs Se-deficient diet
Excerpt: as §1, §4, §5, §6, §7, §8

SelR (Selenoprotein X1) = assay: Microarray gene expression, mouse intestine; format: in vivo, mice; conditions: 1 ppm Se diet 100 days vs Se-deficient diet
Excerpt: as §1, §4, §5, §6, §7, §8

[4] = test system: Cu chaperone for SOD (CCS); assay: Microarray gene expression, mouse intestine; format: in vivo, mice; conditions: 1 ppm Se diet 100 days vs Se-deficient diet
Excerpt: as §1, §4, §5, §6, §7, §8

[5] = test system: Growth arrest and DNA-damage-inducible 45 beta (Gadd45b); assay: Microarray gene expression, mouse intestine; format: in vivo, mice; conditions: intestinal tissue; vs Se-deficient; minus = down
Excerpt: as §1, §4, §5, §6, §7, §8

[6] = test system: glycogen synthase kinase-3-beta (GSK-3β); assay: Microarray gene expression, tau kinases, brain; format: in vivo, mice; conditions: vs non-selenium supplemented diet; minus = down; * significant; listed as SS
Excerpt: as §1, §4, §5
(§9) Total RNA was isolated from using the guanidinium isothiocyanate method of TRIZOL (Life Technologies, Grand Island, N.Y.) and individual samples were used for gene expression profiles. Total RNA was cleaned up by RNeasy Mini kit (Qiagen, Valencia, Calif.). Target RNA was prepared by converting […] total RNA into double-strand cDNA using GeneChip Expression 3′-Amplification Reagents One-Cycle cDNA Synthesis Kit (Affymetrix, Santa Clara, Calif.) with a T7-(dT)24 primer incorporating a T7 RNA polymerase promoter. […]

[7] = test system: cyclin-dependent kinase 5 (Cdk-5); assay: Microarray gene expression, tau kinases, brain; format: in vivo, mice; conditions: vs non-selenium supplemented diet; minus = down; * significant; listed as SS
Excerpt: as §1, §4, §5, §9

[8] = test system: Complement component 1, q subcomponent, beta polypeptide, C1qbp; assay: Microarray gene expression, mouse cerebral cortex; format: in vivo, mice; conditions: vs Se-deficient diet, minus = down, * = significant p<0.01
Excerpt: as §1, §4, §5, §6, §7, §8

Gadd45b [9] = assay: Microarray gene expression, mouse cerebral cortex; format: in vivo, mice; conditions: minus = down
Excerpt: as §1, §4, §5, §6, §7, §8

[10] = test system: Gadd45g1p (Growth arrest and DNA-damage inducible 45 gamma interacting protein); assay: Microarray gene expression, mouse cerebral cortex; format: in vivo, mice; conditions: brain; minus = down; * significant relative to Se-deficient animals
Excerpt: as §1, §4, §5, §6, §7, §8

[11] = test system: Complement component 1, q subcomponent binding protein, C1qbp; assay: Microarray gene expression, mouse cerebral cortex; format: in vivo, mice; conditions: vs Se-deficient diet, minus = down, * = significant p<0.01
Excerpt: as §1, §4, §5, §6, §7, §8

Gadd45b [12] = assay: Gene expression, liver tissue; format: in vivo, mice; conditions: vs Se-deficient, minus = down
Excerpt: as §1, §2, §3

calpain-5 = assay: Expression level of calpain genes after selenium administration; format: in vivo; conditions: tissue not stated; minus = down; asterisk not explained
Procedure: Compositions and methods of the present invention were analyzed to determine if they were capable of altering the expression levels of calpain genes. Compositions comprising various forms of selenium (e.g., SeM, Sod-sel, and SEL-PLEX) were administered to subjects and the expression levels of calpain genes monitored. The expression level of calpain-5 was altered by treatment in the following ways: free selenomethionine (SM)+1.32*, Sod-sel −1.07, SEL-PLEX −1.44*.

## O=[Se](O)O [Sod-sel, sodium selenite]
Gadd45b [1]
  Fold change Gadd45b gene expression, skm (Table 14): −2.42 fold
Thioredoxin Reductase 1
  fold increase in expression of the Thioredoxin Reductase 1 gene: 1.7 fold
[2]
  FC Gadd45g expression (Table 2): −2.0 (p < 0.01) fold
SOD1
  fold enhanced expression of SOD1: 1.92 fold
Selenoprotein W (SelW)
  fold upregulation of Selenoprotein W (SelW) expression: 5.1 fold
[3]
  fold increase in expression of Type 1 iodothyronine deiodinase: 2.8 fold
SelR (Selenoprotein X1)
  fold upregulation of SelR gene: 1.3 fold
[4]
  fold enhancement in expression of Cu chaperone for SOD (CCS): 1.28 fold
[5]
  Fold change Gadd45b gene expression, int (Table 14): 1.08 fold
[6]
  FC GsKβ3 (GSK-3β) gene expression: −1.63* fold
[7]
  FC CdK5 gene expression: −1.13 fold
[8]
  FC C1q beta polypeptide (printed C1qbp) expression: −1.35 fold
Gadd45b [9]; brain, * significant relative to Se-deficient animals
  FC Gadd45b expression (Table 11): −1.39* fold
Gadd45b [9]; cortex tissue, vs Se-deficient
  Fold change Gadd45b gene expression, ctx (Table 14): −1.33 fold
[10]
  FC Gadd45g1p expression (Table 11): −1.12 fold
[11]
  FC C1qbp (C1q binding protein) expression: 1.11 fold
Gadd45b [12]
  Fold change Gadd45b gene expression, liv (Table 14): 1.25 fold
calpain-5
  expression level of calpain-5 altered by treatment: −1.07

Source: US20110008466A1, “METHODS AND COMPOSITIONS FOR ALTERING CELL FUNCTION” (ALLTECH, INC., priority 2006, published 2011)
